The inhibition is the share of the control response that was lost under treatment. By half-life is commonly meant the time in which the quantity being followed falls by half. By ΔTm is commonly meant the shift of the melting midpoint relative to a reference. One may read the Papp as a coefficient for how fast a substance crosses the barrier. One may read the pKd as the negative decadic logarithm of the Kd, by convention in mol/L. One may read the Cmax as the highest concentration seen after dosing.

pKd: −log10 of the molar value.

For series [1], the system named is Mus musculus. Kind of series: Antiinflammatory activity against DSS-induced C57BL/6 mouse model of acute ulcerative colitis assessed as inhibition ratio of TNF-alpha mRNA expression in colon tissue at 10 mg/kg, IG via gavage measured after 7 days by RT-qPCR analysis relative to control. The following applies: time 7 day. It counts as functional. On the set-up: scale not given: the % may be the effect or the level left.

Series [2] deals with Mus musculus. Kind of series: Antiinflammatory activity against DSS-induced C57BL/6 mouse model of acute ulcerative colitis assessed as reduction in serum IL-6 levels administered intragastrically via gavage measured after 7 days by ELISA. It counts as functional, organism-based. The following applies: dose 1-10 mg/kg, route ig, time 7.0 day, DDE = dose-dependent effect. For orientation: An ELISA detects its analyte on a solid surface through an enzyme-linked reagent.

For series [3], the system named is Mus musculus. Description: Inhibition of MKK3-p38 MAPK-elF4E signaling pathway in C57BL/6 mouse model of acute ulcerative colitis assessed as decrease in DSS-induced p38 MAPK phosphorylation in colon tissue administered intragastrically via gavage measured after 7 days by Western blot analysis. Particulars: dose 1-50 mg/kg, time 7.0 day, DDE = dose-dependent effect. A general note: In western blotting, separated proteins are transferred to a membrane and probed.

The subject of series [4] is Mus musculus. Description: Anti-ulcerative colitis activity in IL-10-/- C57BL/6 mouse model of ulcerative colitis assessed as colon length recovery ratio at 3 mg/kg, IG via gavage for 8 weeks relative to control. It counts as functional.
Series [5] deals with Mus musculus. Kind of series: Antiinflammatory activity against IL-10-/- C57BL/6 mouse model of ulcerative colitis assessed as inhibition ratio of TNF-alpha protein expression at 10 mg/kg, IG via gavage and measured after 8 weeks by ELISA relative to control. It counts as functional. Set-up: scale not given: the % may be the effect or the level left.
Series [6] can be described thus: Half life in 12 hr starved C57 mouse at 30 mg/kg, po measured for 0.083 to 24 hrs post-dose by LC-MS-MS analysis. It counts as ADME, organism-based. The following applies: in vivo, time 0.083-24 hrs.
In series [7] the test system is RAW264.7. Kind of series: Inhibition of MKK3-p38-elF4E signaling pathway in mouse RAW264.7 cells assessed as inhibition of LPS-induced p38 phosphorylation treated for 1.5 hrs followed by LPS treatment for 1 hr by Western blot analysis. It counts as cell-based. Particulars: dose 3.125-12.5 µmol/L, time 2.5 hrs, DDE = dose-dependent effect.
Series [8] can be described thus: Toxicity in C57 mouse assessed as body weight loss at 50 to 500 mg/kg, po administered daily for 14 days. It counts as organism-based. The following applies: in vivo, 336 h, dose 50-500 mg/kg, time 14 day.
In series [9] the target is T1, Dual specificity mitogen-activated protein kinase kinase 3 (Mus musculus) (UniProt O09110).
T1 sequence (whole entry): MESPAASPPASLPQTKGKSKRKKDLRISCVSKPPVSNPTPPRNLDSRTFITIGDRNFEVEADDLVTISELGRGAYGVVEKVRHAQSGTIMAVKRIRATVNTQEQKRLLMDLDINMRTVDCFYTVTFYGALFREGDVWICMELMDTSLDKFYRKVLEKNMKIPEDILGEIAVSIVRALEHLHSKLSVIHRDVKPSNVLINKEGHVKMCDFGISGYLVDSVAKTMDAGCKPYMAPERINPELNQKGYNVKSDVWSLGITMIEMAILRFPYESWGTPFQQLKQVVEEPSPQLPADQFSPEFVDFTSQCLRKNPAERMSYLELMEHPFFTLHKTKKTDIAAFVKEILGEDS
Description: Binding affinity to MKK3 in mouse RAW264.7 cells assessed as increase in thermal stability by measuring change in melting temperature at 6.25 uM incubated for 24 hrs by CETSA. It counts as cell-based.

For series [10], the system named is Mus musculus. Kind of series: Anti-ulcerative colitis activity in DSS-induced C57BL/6 mouse ulcerative colitis model assessed as histopathological score recovery ratio at 3 mg/kg, IG via gavage measured after 7 days by H and E staining method relative to control. It counts as functional. The following applies: time 7 day.
The subject of series [11] is RAW264.7. Kind of series: Inhibition of LPS-induced TNFalpha production in mouse RAW264.7 cells at 50 uM preincubated for 2 hrs followed by LPS treatment for 24 hrs by RT-qPCR analysis relative to control. Particulars: time 26 hrs. It counts as functional. For orientation: Quantitative PCR measures a nucleic acid by following its amplification.
The next series relates to P-gp (human). Kind of series: Apparent permeability in dog MDCK-MDR1 cells transfected with human P-gp. It counts as ADME, cell-based, Canis lupus familiaris.
Series [12] has as its system Mus musculus. Kind of series: Anti-ulcerative colitis activity in DSS-induced C57BL/6 mouse ulcerative colitis model assessed as histopathological score recovery ratio at 10 mg/kg, IG via gavage measured after 7 days by H and E staining method relative to control. Particulars: time 7 day. It counts as functional.
Series [13] has as its system Mus musculus. Kind of series: Antiinflammatory activity against IL-10-/- C57BL/6 mouse model of ulcerative colitis assessed as inhibition ratio of IL-1beta protein expression at 3 mg/kg, IG via gavage and measured after 8 weeks by ELISA relative to control. It counts as functional. Set-up: scale not given: the % may be the effect or the level left.
Series [14] has as its system Mus musculus. Description: Antiinflammatory activity against IL-10-/- C57BL/6 mouse model of ulcerative colitis assessed as inhibition ratio of IL-6 protein expression at 3 mg/kg, IG via gavage and measured after 8 weeks by ELISA relative to control. It counts as functional. Set-up: scale not given: the % may be the effect or the level left.
Series [15] relates to Mus musculus. Kind of series: Antiinflammatory activity against DSS-induced C57BL/6 mouse model of acute ulcerative colitis assessed as inhibition ratio of TNF-alpha mRNA expression in colon tissue at 3 mg/kg, IG via gavage measured after 7 days by RT-qPCR analysis relative to control. It counts as functional. On the set-up: scale not given: the % may be the effect or the level left. The following applies: time 7 day.

Series [16] relates to Mus musculus. Description: Inhibition of MKK3-p38 MAPK-elF4E signaling pathway in C57BL/6 mouse model of acute ulcerative colitis assessed as decrease in DSS-induced MK2 phosphorylation in colon tissue administered intragastrically via gavage measured after 7 days by Western blot analysis. Particulars: dose 1-50 mg/kg, time 7.0 day, DDE = dose-dependent effect.
The test system of series [17] is Mus musculus. Description: Antiinflammatory activity against DSS-induced C57BL/6 mouse model of acute ulcerative colitis assessed as inhibition ratio of IL-23 protein expression at 3 mg/kg, IG via gavage measured after 7 days by ELISA relative to control. The following applies: time 7 day. It counts as functional. On the set-up: scale not given: the % may be the effect or the level left.

In series [18] the test system is Mus musculus. Description: Anti-ulcerative colitis activity in DSS-induced C57BL/6 mouse ulcerative colitis model assessed as colon length recovery ratio at 3 mg/kg, IG via gavage measured after 7 days relative to control. It counts as functional. Particulars: time 7 day.
Series [19] can be described thus: Apparent clearance during terminal phase in 12 hr starved C57 mouse at 30 mg/kg, po measured for 0.083 to 24 hrs post-dose by LC-MS-MS analysis. It counts as ADME, organism-based. The following applies: in vivo, time 0.083-24 hrs.
Series [20] has as its target T2, Dual specificity mitogen-activated protein kinase kinase 3 (Homo sapiens, UniProt P46734).
T2 sequence (P46734 whole entry): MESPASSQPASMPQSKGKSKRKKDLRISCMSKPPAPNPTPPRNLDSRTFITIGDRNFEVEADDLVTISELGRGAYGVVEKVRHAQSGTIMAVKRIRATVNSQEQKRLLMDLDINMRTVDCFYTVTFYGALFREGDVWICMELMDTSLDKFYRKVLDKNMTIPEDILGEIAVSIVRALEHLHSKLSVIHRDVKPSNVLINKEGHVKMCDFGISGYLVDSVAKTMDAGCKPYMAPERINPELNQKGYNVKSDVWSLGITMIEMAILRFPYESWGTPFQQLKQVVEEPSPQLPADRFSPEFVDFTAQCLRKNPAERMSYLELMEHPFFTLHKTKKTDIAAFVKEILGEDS
Kind of series: Binding affinity to CM5 chip immobilized human MKK3 (20 to 347 residues) expressed in Escherichia coli BL21 (DE3) assessed as dissociation constants, KD by surface plasmon resonance analysis.

Series [21] is described as follows: Cmax in 12 hr starved C57 mouse at 30 mg/kg, po measured for 0.083 to 24 hrs post-dose by LC-MS-MS analysis. It counts as ADME, organism-based. On the set-up: dose 30 mg/kg, time 0.083-24 hrs, route po. The following applies: in vivo.

Regarding `COc1ccc([C@H]2CC(=O)c3cc(OC)cc(OC)c32)cc1`, the Activity in the series on Mus musculus [1] was 78.5%; with Mus musculus [2], “Dde”; in the series on Mus musculus [4] it was 29.4%; with Mus musculus [5], 61.9%; in [8] it was “Non-Toxic”; with Mus musculus [10] it was 41.7%. In addition, the Activity with Mus musculus [12] worked out at 70%; in the series on Mus musculus [13] it was 50%; in the series on Mus musculus [14] it was 44.5%; with Mus musculus [15], 73.2%; in the series on Mus musculus [17] it was 51.6%; in the series on Mus musculus [18] it was 51.5%. Also, the inhibition entry in the series with Mus musculus [3], with RAW264.7 [7] and in the series with Mus musculus [16] was “Dde” throughout. Also, the half-life in [6] is 8.67 h. In addition, in [9], the ΔTm stood at 2 °C. Besides, the inhibition at 50 µM with RAW264.7 [11] is 62.3%. In the series with P-gp (human), the Papp was 23.3 ×10⁻⁶ cm/s. Besides, the CLz/F in series [19] is 4.83 mL/min/kg. For the same molecule, the pKd in series [20] was 7.15. The Cmax in series [21] worked out at 2290 ng/mL.

Source of the values: ChEMBL document CHEMBL5154881, “Discovery of First-in-Class TAK1-MKK3 Protein-Protein Interaction (PPI) Inhibitor (R)-STU104 for the Treatment of Ulcerative Colitis through Modulating TNF-α Production” (J Med Chem, 2022).
